{"source": "patent US12473266B2", "about": "“Benzoxazole and related compounds useful as chaperone-mediated autophagy modulators” (Albert Einstein College of Medicine, priority 2018, dated 2025)", "key": {"[1]": {"tested_on": "CMA activity (KFERQ-Dendra reporter) in NIH 3T3 fibroblasts", "assay": "Photoconvertible CMA reporter (KFERQ-Dendra) assay, fluorescent puncta per cell", "type": "cell-based", "conditions": "NIH 3T3 KFERQ-Dendra; for effect on the number of fluorescent puncta per cell: result in words", "description": "The photoactivatable CMA reporter assay was constructed by inserting a sequence of 21 amino acid of Ribonuclease A bearing the CMA-targeting motif in the N-terminus multicloning site of the photoactivatable protein mCherry1 or the photoswitchable protein Dendra 2.\nNIH 3T3 fibroblasts were stably transduced with a photoconvertible CMA reporter, KFERQ-Dendra and were photoswitched by exposure to a […] (constant current) LED (Norlux, 405 nm) for 10 minutes and at the desired times fixed in 3% formaldehyde. Test cells are exposed to the indicated concentrations of the compounds, e.g. for 12 hours or 24 hours. Cells are imaged, e.g., by using high content microscopy (Operetta, Perkin Elmer) or by capturing images with an Axiovert 200 fluorescence microscope (Zeiss) with apotome and equipped with a 63×1.4 NA oil objective lens and red (ex. 570/30 nm, em. 615/30 nm), cyan (ex. 365/50 nm and em. 530/45 nm) and green (ex. 475/40 nm and em. 535/45 nm) filter sets (Chroma). Images were acquired with a high-resolution CCD camera after optical sectioning through the apotome. CMA activity is measured as the average number of fluorescent puncta (CMA active lysosomes) per cell. Values are expressed relative to values in untreated cells that were assigned an arbitrary value of 1 and are mean of >2,500 cells counted per condition. The S.D. in all instances was <0.01% mean value."}, "[2]": {"assay": "in vitro", "description": "Microsome stability is determined in human, rat, and mouse, liver microsomes.\nCompound at 3 μM final concentration along with 0.5 mg/mL microsome protein and 1 mM NADPH was incubated for 0, 5, 15, 30 and 60 min. As a negative control, test compound is incubated with microsomes in the absence of NADPH. Samples are quenched with methanol and centrifuged for 25 min at 2500 rpm to precipitate proteins. Supernatants are analyzed (N=3) by LC-MS./MS. The ln peak area ratio (compound peak area/internal standard peak area) is plotted against time and the gradient of the line determined the elimination rate constant [k=(−1)(slope)].\nR^2 is the correlation coefficient of the linear regression for the determination of kinetic constant. T1/2 is the half life and CLint (mic) is the intrinsic clearance. CLint(liver)=CLint (mic)*mg microsomal protein/g liver weight*g liver weight/kg body weight. Liver weight/kg body weight is 20 g/kg for human."}}, "data": [{"smiles": "Clc1ccc2nc(-c3ccc(-c4ccccc4)cc3)oc2c1", "note": "[Cmp. 1, 2-([1,1′-biphenyl]-4-yl)-6-chlorobenzo[d]oxazole]", "values": [{"measurement": "CMA activity, average number of fluorescent puncta (CMA active lysosomes) per cell, relative to untreated cells (=1)", "setting": "[1]; column 'Time' = 5", "result": 2.43}, {"measurement": "CMA activity, average number of fluorescent puncta (CMA active lysosomes) per cell, relative to untreated cells (=1)", "setting": "[1]; column 'Time' = 10", "result": 2.16}, {"measurement": "CMA activity, average number of fluorescent puncta (CMA active lysosomes) per cell, relative to untreated cells (=1)", "setting": "[1]; column 'Time' = 20", "result": 2.98}, {"measurement": "CMA activity, average number of fluorescent puncta (CMA active lysosomes) per cell, relative to untreated cells (=1)", "setting": "[1]; column 'Time' = 30", "result": 3.22}, {"measurement": "CLint scaled at 3 μM", "setting": "[2]; human, microsomes", "result": "< 8.6", "unit": "mL/min/kg"}, {"measurement": "half-life at 3 μM", "setting": "[2]; human, microsomes", "result": "> 2.42", "unit": "h"}, {"measurement": "CLint(mic)", "setting": "[2]; human, microsomes, 3 μM", "result": "< 9.6", "unit": "µL/min/mg"}, {"measurement": "Remaining (T = 60 min)", "setting": "[2]; human, microsomes, 1 h, 3 μM", "result": 83.4, "unit": "%"}]}, {"smiles": "CC(=O)Nc1ccc(-c2nc3ccc(Cl)cc3o2)cc1", "note": "[Cmp. 2, N-(4-(6-chlorobenzo[d]oxazol-2-yl)phenyl)acetamide]", "values": [{"measurement": "CMA activity, average number of fluorescent puncta (CMA active lysosomes) per cell, relative to untreated cells (=1)", "setting": "[1]; column 'Time' = 5", "result": 2.72}, {"measurement": "CMA activity, average number of fluorescent puncta (CMA active lysosomes) per cell, relative to untreated cells (=1)", "setting": "[1]; column 'Time' = 10", "result": 2.63}, {"measurement": "CMA activity, average number of fluorescent puncta (CMA active lysosomes) per cell, relative to untreated cells (=1)", "setting": "[1]; column 'Time' = 20", "result": 3.40}, {"measurement": "CMA activity, average number of fluorescent puncta (CMA active lysosomes) per cell, relative to untreated cells (=1)", "setting": "[1]; column 'Time' = 30", "result": 5.12}]}, {"smiles": "O=C(Nc1ccc(-c2nc3ccc(Cl)cc3o2)cc1)C(F)(F)F", "note": "[Cmp. 3, N-(4-(6-chlorobenzo[d]oxazol-2-yl)phenyl)-2,2,2-trifluoroacetamide]", "values": [{"measurement": "effect on the number of fluorescent puncta per cell", "setting": "[1]", "result": "positive effect"}]}, {"smiles": "CC(C)CC(=O)Nc1ccc(-c2nc3ccc(Cl)cc3o2)cc1", "note": "[Cmp. 5, N-(4-(6-chlorobenzo[d]oxazol-2-yl)phenyl)-3-methylbutanamide]", "values": [{"measurement": "effect on the number of fluorescent puncta per cell", "setting": "[1]", "result": "positive effect"}]}, {"smiles": "O=C(Nc1ccc(-c2nc3ccc(Cl)cc3o2)cc1)c1ccc(F)cc1", "note": "[Cmp. 6, N-(4-(6-chlorobenzo[d]oxazol-2-yl)phenyl)-4-fluorobenzamide]", "values": [{"measurement": "effect on the number of fluorescent puncta per cell", "setting": "[1]", "result": "positive effect"}]}, {"smiles": "O=S(=O)(Nc1ccc(-c2nc3ccc(Cl)cc3o2)cc1)c1ccc(F)cc1", "note": "[Cmp. 7, N-(4-(6-chlorobenzo[d]oxazol-2-yl)phenyl)-4-fluorobenzenesulfonamide]", "values": [{"measurement": "effect on the number of fluorescent puncta per cell", "setting": "[1]", "result": "positive effect"}]}, {"smiles": "O=S(=O)(Nc1ccc(-c2nc3ccc(Cl)cc3o2)cc1)C(F)(F)F", "note": "[Cmp. 8, N-(4-(6-chlorobenzo[d]oxazol-2-yl)phenyl)-1,1,1-trifluoromethanesulfonamide]", "values": [{"measurement": "effect on the number of fluorescent puncta per cell", "setting": "[1]", "result": "positive effect"}]}, {"smiles": "FC(F)(F)c1ccc(-c2ccc(-c3nc4ccc(Cl)cc4o3)cc2)cc1", "note": "[Cmp. 10, 6-chloro-2-(4′-trifluoromethyl-[1,1′-biphenyl]-4-yl)benzo[d]oxazole]", "values": [{"measurement": "effect on the number of fluorescent puncta per cell", "setting": "[1]", "result": "positive effect"}]}, {"smiles": "O=C(Nc1ccc(-c2nc3cc(Cl)ccc3o2)cc1)C(F)(F)F", "note": "[Cmp. 13, N-(4-(5-chlorobenzo[d]oxazol-2-yl)phenyl)-2,2,2-trifluoroacetamide]", "values": [{"measurement": "effect on the number of fluorescent puncta per cell", "setting": "[1]", "result": "positive effect"}]}, {"smiles": "O=C(Nc1ccc(-c2ccc(-c3nc4cc(Cl)ccc4o3)cc2)cc1)C(F)(F)F", "note": "[Cmp. 14, N-(4′-(5-chlorobenzo[d]oxazol-2-yl)-[1,1′-biphenyl]-4-yl)-2,2,2-trifluoroacetamide]", "values": [{"measurement": "effect on the number of fluorescent puncta per cell", "setting": "[1]", "result": "positive effect"}]}, {"smiles": "Clc1ccc2c(c1)OCC(c1ccc(-c3ccccc3)cc1)=N2", "note": "[Cmp. A]", "values": [{"measurement": "CLint(mic)", "setting": "[2]; human, microsomes, 3 μM", "result": 36.6, "unit": "µL/min/mg"}, {"measurement": "Remaining (T = 60 min)", "setting": "[2]; human, microsomes, 1 h, 3 μM", "result": 30.1, "unit": "%"}]}, {"smiles": "O=C(O)Cc1ccccc1Nc1c(Cl)cccc1Cl", "note": "[Diclofenac]", "values": [{"measurement": "Remaining (T = 60 min)", "setting": "[2]; human, microsomes, 1 h, 3 μM", "result": 6.8, "unit": "%"}]}, {"smiles": "C[C@]12CC[C@H]3[C@@H](CCC4=CC(=O)CC[C@@]43C)[C@@H]1CC[C@@H]2O", "note": "[Testosterone]", "values": [{"measurement": "Remaining (T = 60 min)", "setting": "[2]; human microsomes, 60 min incubation", "result": 4.6, "unit": "%"}]}]}
